In paper PMC10010643 (Cancer Chemotherapy and Pharmacology, 2023):
Several values for one entry are separate records, joined by “and”; a condition that tells them apart may be missing. Equal values may be shown once. Entries after “also recorded” stand apart in the source; their conditions may differ. Read-outs that look alike come from different tables or passages of the source.

Columns and labels:
[1] = Fraction of unbound GB1211 in plasma; type: in vitro ADME; conditions: human
[2] = test system: panel of different targets including enzymes, receptors, and ion channels; set-up: method as in PMID 36154172; conditions: cited from earlier work
[3] = test system: lung fibrosis; set-up: method as in PMID 36154172; conditions: bleomycin-induced; cited from earlier work
[4] = Plasma PK, Part A single oral doses in healthy participants; type: in vivo, human; conditions: for AUC(0-t) / AUC(0-inf) / Cmax / Tmax / Vd/F / half-life: human, plasma; for Vd/F: read-out: Vz/F, geometric mean (CV%)
Procedure: A further two cohorts were recruited. […] Each individual participated in one treatment period only, with the exception of the food-effect cohort (cohort A3) in which there were two treatment periods separated by at least 7 days washout. Participants resided at the Clinical Research Unit (CRU) from 1 day ahead of dosing (day − 1) to day 3 and returned for a follow-up visit 5–7 days after their final dose. For all cohorts, doses were administered in the fasted state in the morning of day 1 of Treatment Period 1. In the food-effect cohort, doses were given 30 min after the start of a high-fat breakfast (973 calories total: approximately 150 protein calories, 250 carbohydrate calories, and 500–600 fat calories) on day 1 of Treatment Period 2. For cohorts A1 to A5 in Treatment Period 1, dosing occurred such that one pair (one active and one placebo) were dosed at least 24 h before the remaining participants. Continuation to dose those who remained was at the investigator’s discretion. Escalating doses were administered following satisfactory sponsor and investigator review of the safety and tolerability data (up to 48 h post-final dose) and PK data (up to 24 h post-final dose) from the lower dose levels.
Blood samples (4 mL) were collected in K3 EDTA tubes by venipuncture or cannulation. In Part A, samples were taken pre-dose and at 0.5, 1, 1.5, 2, 3, 4, 6, 8, 12, 16, 24, 36 and 48 h post-dose. In part B, samples were taken pre-dose on days 1 (pre-AM dose) and 10 (pre-final dose) and at 0.5, 1, 1.5, 2, 3, 4, 6, 8 and 12 h post-AM dose for day 1 and post-final dose for day 10. Samples were also taken on days 4–9 pre-AM dose, on day 11 at 24 and 36 h post-final dose, and on day 12 at 48 h post-final dose. Blood samples were centrifuged at 1500 g for 10 min at […] and split into two plasma aliquots.
Urine was collected by spot collection in Part A only before dosing and between 0–6, 6–12, 12–24, and 24–48 h post-dose. Blood and urine aliquots were stored in polypropylene tubes at − 70 °C until bioanalysis.
Noncompartmental PK analysis was performed on individual plasma and urine concentration data, using Phoenix® WinNonlin® 8.1 software (Certara USA Inc., Princeton NJ). Plasma PK parameter endpoints for Part A included area under the plasma concentration–time curve (AUC) from time 0 to infinity (AUC0–∞), AUC from time 0 to the time of the last quantifiable concentration (AUC0–tlast), maximum observed plasma concentration (Cmax), time of the maximum observed plasma concentration (Tmax), terminal half-life in plasma (t½), apparent total plasma clearance (CL/F), and apparent volume of distribution (Vz/F). Urine PK parameters calculated in Part A included amount of drug excreted in urine (Ae), percentage of dose excreted unchanged in urine (fe) and renal clearance (CLR).
Dose proportionality was analyzed for exposure parameters after fasted doses. The power model was used on AUC0–∞, AUC0–tlast, and Cmax on day 1 in Part A. Data were analyzed over two dose ranges: 50–400 mg (50 mg capsules) and 5–50 mg (5 mg capsules). An analysis of variance was used on AUC0–τ and Cmax on day 10 in Part B. The effect of food on AUC0–∞, AUC0–tlast, and Cmax at 50 mg in Part A was investigated using a mixed model which included treatment as a fixed effect and subject as a random effect.

[5] = 50 mg after a high-fat meal vs fasted

## OC[C@H]1O[C@H](Sc2cncc(Br)c2)[C@H](O)[C@@H](n2cc(-c3cc(F)c(F)c(F)c3)nn2)[C@H]1O [GB1211]
[1]
  fraction unbound: 0.0534
[2]
  Safety profile against a panel of different targets: favorable safety profile
[3]
  Fibrosis in vivo, lung: reducing fibrosis
[4]; [5]
  Delay of absorption in the fed state: 2 h and ~ 2 h
  Effect of food on systemic exposure: unaffected; also recorded: did not markedly affect systemic exposure; also recorded: minor food-effect on drug disposition
[4]; 5–50 mg (5 mg capsule) dose range
  Dose proportionality of systemic exposure: dose-proportional manner
[4]; 50–400 mg (50 mg capsule) dose range
  Dose proportionality of systemic exposure: sub-proportional manner
[4]; oral, 5 mg, single dose 5 mg (1 × 5 mg), fasted, read-out: AUC0–tlast, geometric mean (CV%)
  AUC(0-t): 677 ng·h/mL
[4]; oral, 5 mg, single dose 5 mg (1 × 5 mg), fasted, read-out: AUC0–∞, geometric mean (CV%)
  AUC(0-inf): 712 ng·h/mL
[4]; oral, 5 mg, single dose 5 mg (1 × 5 mg), fasted, read-out: Cmax, geometric mean (CV%)
  Cmax: 75.2 ng/mL
[4]; oral, 5 mg, single dose 5 mg (1 × 5 mg), fasted, read-out: Tmax, median (min–max)
  Tmax: 2 h
[4]; oral, 5 mg, single dose 5 mg (1 × 5 mg), fasted
  Vd/F: 114 L
[4]; oral, 5 mg, single dose 5 mg (1 × 5 mg), fasted, read-out: t½, arithmetic mean (SD) (converted)
  half-life: 11.3 h
[4]; oral, 20 mg, single dose 20 mg (4 × 5 mg), fasted, read-out: AUC0–tlast, geometric mean (CV%)
  AUC(0-t): 3150 ng·h/mL
[4]; oral, 20 mg, single dose 20 mg (4 × 5 mg), fasted, read-out: AUC0–∞, geometric mean (CV%)
  AUC(0-inf): 3350 ng·h/mL
[4]; oral, 20 mg, single dose 20 mg (4 × 5 mg), fasted, read-out: Cmax, geometric mean (CV%)
  Cmax: 365 ng/mL
[4]; oral, 20 mg, single dose 20 mg (4 × 5 mg), fasted, read-out: Tmax, median (min–max)
  Tmax: 1.75 h
[4]; oral, 20 mg, single dose 20 mg (4 × 5 mg), fasted
  Vd/F: 104 L
[4]; oral, 20 mg, single dose 20 mg (4 × 5 mg), fasted, read-out: t½, arithmetic mean (SD) (converted)
  half-life: 12.2 h
[4]; oral, 50 mg, Fasted, read-out: AUC0–tlast, geometric LS means
  AUC(0-t): 4180 ng·h/mL
[4]; oral, 50 mg, Fasted, read-out: AUC0–∞, geometric LS means
  AUC(0-inf): 4520 ng·h/mL
[4]; oral, 50 mg, Fasted, read-out: Cmax, geometric LS means
  Cmax: 358 ng/mL
[4]; oral, 50 mg, Fed, read-out: AUC0–tlast, geometric LS means
  AUC(0-t): 4930 ng·h/mL
[4]; oral, 50 mg, Fed, read-out: AUC0–∞, geometric LS means
  AUC(0-inf): 5420 ng·h/mL
[4]; oral, 50 mg, Fed, read-out: Cmax, geometric LS means
  Cmax: 389 ng/mL
[4]; oral, 50 mg, single dose 50 mg (1 × 50 mg), fasted, read-out: AUC0–tlast, geometric mean (CV%)
  AUC(0-t): 4180 ng·h/mL
[4]; oral, 50 mg, single dose 50 mg (1 × 50 mg), fasted, read-out: AUC0–∞, geometric mean (CV%)
  AUC(0-inf): 4520 ng·h/mL
[4]; oral, 50 mg, single dose 50 mg (1 × 50 mg), fasted, read-out: Cmax, geometric mean (CV%)
  Cmax: 358 ng/mL
[4]; oral, 50 mg, single dose 50 mg (1 × 50 mg), fasted, read-out: Tmax, median (min–max)
  Tmax: 3.04 h
[4]; oral, 50 mg, single dose 50 mg (1 × 50 mg), fasted
  Vd/F: 200 L
[4]; oral, 50 mg, single dose 50 mg (1 × 50 mg), fasted, read-out: t½, arithmetic mean (SD) (converted)
  half-life: 12.7 h
[4]; oral, 50 mg, single dose 50 mg (1 × 50 mg), fed, read-out: AUC0–tlast, geometric mean (CV%)
  AUC(0-t): 4930 ng·h/mL
[4]; oral, 50 mg, single dose 50 mg (1 × 50 mg), fed, read-out: AUC0–∞, geometric mean (CV%)
  AUC(0-inf): 5420 ng·h/mL
[4]; oral, 50 mg, single dose 50 mg (1 × 50 mg), fed, read-out: Cmax, geometric mean (CV%)
  Cmax: 389 ng/mL
[4]; oral, 50 mg, single dose 50 mg (1 × 50 mg), fed, read-out: Tmax, median (min–max)
  Tmax: 5 h
[4]; oral, 50 mg, single dose 50 mg (1 × 50 mg), fed
  Vd/F: 169 L
[4]; oral, 50 mg, single dose 50 mg (1 × 50 mg), fed, read-out: t½, arithmetic mean (SD) (converted)
  half-life: 12.9 h
[4]; oral, 50 mg, single dose 50 mg (10 × 5 mg), fasted, read-out: AUC0–tlast, geometric mean (CV%)
  AUC(0-t): 6890 ng·h/mL
[4]; oral, 50 mg, single dose 50 mg (10 × 5 mg), fasted, read-out: AUC0–∞, geometric mean (CV%)
  AUC(0-inf): 7480 ng·h/mL
[4]; oral, 50 mg, single dose 50 mg (10 × 5 mg), fasted, read-out: Cmax, geometric mean (CV%)
  Cmax: 861 ng/mL
[4]; oral, 50 mg, single dose 50 mg (10 × 5 mg), fasted, read-out: Tmax, median (min–max)
  Tmax: 1.75 h
[4]; oral, 50 mg, single dose 50 mg (10 × 5 mg), fasted
  Vd/F: 133 L
[4]; oral, 50 mg, single dose 50 mg (10 × 5 mg), fasted, read-out: t½, arithmetic mean (SD) (converted)
  half-life: 13.8 h
[4]; oral, 100 mg, single dose 100 mg (2 × 50 mg), fasted, read-out: AUC0–tlast, geometric mean (CV%)
  AUC(0-t): 5910 ng·h/mL
[4]; oral, 100 mg, single dose 100 mg (2 × 50 mg), fasted, read-out: AUC0–∞, geometric mean (CV%)
  AUC(0-inf): 6380 ng·h/mL
[4]; oral, 100 mg, single dose 100 mg (2 × 50 mg), fasted, read-out: Cmax, geometric mean (CV%)
  Cmax: 525 ng/mL
[4]; oral, 100 mg, single dose 100 mg (2 × 50 mg), fasted, read-out: Tmax, median (min–max)
  Tmax: 3.5 h
[4]; oral, 100 mg, single dose 100 mg (2 × 50 mg), fasted
  Vd/F: 282 L
[4]; oral, 100 mg, single dose 100 mg (2 × 50 mg), fasted, read-out: t½, arithmetic mean (SD) (converted)
  half-life: 12.8 h
[4]; oral, 200 mg, single dose 200 mg (4 × 50 mg), fasted, read-out: AUC0–tlast, geometric mean (CV%)
  AUC(0-t): 11500 ng·h/mL
[4]; oral, 200 mg, single dose 200 mg (4 × 50 mg), fasted, read-out: AUC0–∞, geometric mean (CV%)
  AUC(0-inf): 12900 ng·h/mL
[4]; oral, 200 mg, single dose 200 mg (4 × 50 mg), fasted, read-out: Cmax, geometric mean (CV%)
  Cmax: 1010 ng/mL
[4]; oral, 200 mg, single dose 200 mg (4 × 50 mg), fasted, read-out: Tmax, median (min–max)
  Tmax: 3.5 h
[4]; oral, 200 mg, single dose 200 mg (4 × 50 mg), fasted
  Vd/F: 344 L
[4]; oral, 200 mg, single dose 200 mg (4 × 50 mg), fasted, read-out: t½, arithmetic mean (SD) (converted)
  half-life: 15.5 h
[4]; oral, 400 mg, single dose 400 mg (8 × 50 mg), fasted, read-out: AUC0–tlast, geometric mean (CV%)
  AUC(0-t): 19000 ng·h/mL
[4]; oral, 400 mg, single dose 400 mg (8 × 50 mg), fasted, read-out: AUC0–∞, geometric mean (CV%)
  AUC(0-inf): 21600 ng·h/mL
[4]; oral, 400 mg, single dose 400 mg (8 × 50 mg), fasted, read-out: Cmax, geometric mean (CV%)
  Cmax: 1550 ng/mL
[4]; oral, 400 mg, single dose 400 mg (8 × 50 mg), fasted, read-out: Tmax, median (min–max)
  Tmax: 4 h
[4]; oral, 400 mg, single dose 400 mg (8 × 50 mg), fasted
  Vd/F: 398 L
[4]; oral, 400 mg, single dose 400 mg (8 × 50 mg), fasted, read-out: t½, arithmetic mean (SD) (converted)
  half-life: 15.2 h
[4]; oral, 5–50 mg (5 mg capsule), single dose, fasted, read-out: Median Tmax, range across doses
  Tmax: 1.75 to 2 h
[4]; oral, 50–400 mg (50 mg capsule), single dose, fasted, read-out: Median Tmax, range across doses
  Tmax: 3.04 to 4 h
[4]; po, single and multiple oral doses, fasted, read-out: Mean half-life, range across doses
  half-life: 11 to 16 h
[4]; po, single and multiple oral doses, fasted, read-out: Time of maximum plasma concentration (median), range across doses
  Tmax: 1.75 to 4 h
[4]; po, single oral dose, read-out: Arithmetic mean terminal half-life (t½), range across doses
  half-life: 11.3 to 15.5 h
[4]; single dose 5 mg (1 × 5 mg), fasted
  CL/F, geometric mean (CV%): 7.02 (24.5) L/h
[4]; single dose 20 mg (4 × 5 mg), fasted
  CL/F, geometric mean (CV%): 5.97 (10.2) L/h
[4]; single dose 50 mg (1 × 50 mg), fasted
  CL/F, geometric mean (CV%): 11.1 (43.2) L/h
[4]; single dose 50 mg (1 × 50 mg), fed
  CL/F, geometric mean (CV%): 9.23 (21.5) L/h
[4]; single dose 50 mg (10 × 5 mg), fasted
  CL/F, geometric mean (CV%): 6.69 (42.6) L/h
[4]; single dose 100 mg (2 × 50 mg), fasted
  CL/F, geometric mean (CV%): 15.7 (21.1) L/h
[4]; single dose 200 mg (4 × 50 mg), fasted
  CL/F, geometric mean (CV%): 15.5 (33.7) L/h
[4]; single dose 400 mg (8 × 50 mg), fasted
  CL/F, geometric mean (CV%): 18.5 (25.0) L/h
